Measurements published in patent publication US20240228512A1, “ACYCLIC OXAZEPINE COMPOUNDS COMPRISING A 6-AZA MOIETY AND USES THEREOF” (Genentech, Inc., priority 2022, published 2024).

Legend:
[1] = target: recombinant human mutant KRas G12V (SOS1-mediated nucleotide exchange) (Homo sapiens (Human), UniProt P01116, G12V); assay: KRAS biochemical assay, BODIPY-GDP exchange TR-FRET (G12V-GDP HTRF)
SW620 PERK = SW620 PERK assay; type: cell-based; conditions: Homo sapiens, SW-620, SW620, PERK
[2] = target: recombinant human KRAS wild type (SOS1-mediated nucleotide exchange) (Homo sapiens (Human), UniProt P01116); assay: KRAS biochemical assay, BODIPY-GDP exchange TR-FRET (WT-GDP HTRF)
Procedure: [Worded in the source for another variant; this variant is reported under the same test.] KRAS Biochemical Assay—BODIPY-GDP Exchange TR-FRET.
Biochemical compound potencies were assessed by evaluating inhibition of SOS1-mediated nucleotide exchange in KRAS G12D. The SOS1-promoted exchange of fluorescently-labeled GDP (BOPIDY-GDP) was monitored by time-resolved fluorescence resonance energy transfer (TR-FRET). Compounds solubilized in DMSO were dispensed as concentration series into 384-well white assay plates. […] The reaction was initiated with the addition of 5 μL of 3 nM recombinant human SOS1 and 300 nM BODIPY-GDP in assay buffer. After a 60-minute incubation, the fluorescence was measured with excitation at 337 nm and emission at 490 and 520 nm. The TR-FRET ratio was determined as the fluorescence at 520 nm divided by the fluorescence at 490 nm multiplied by 10,000. […] The normalized TR-FRET results were plotted against compound concentration, and the data fit to a 4-parameter Hill equation to determine the IC50 values.

H1975 cells = assay: H1975 CTG proliferation assay; type: cell-based; conditions: Homo sapiens, NCI-H1975, H1975, CTG
SW620 cells = assay: SW620 3D proliferation assay (CellTiter-Glo); type: cell-based; conditions: Homo sapiens, SW-620, 168 h, SW620, 3D culture, 7 days, read-out: SW620 CTG IC50
Procedure: (§1) SW620 and HPAC 3D proliferation assays.
(§2) Compound potencies were assessed in proliferation assays conducted with SW620 and HPAC cell lines grown in 3D cultures. Cells were seeded into 96- or 384-well ultra-low attachment plates at 3000 or 1000 cells/well, respectively, in culture medium (RPMI-1640, 10% FBS, 2 mM L-glutamine). The plated cells were centrifuged briefly, allowed to rest for 30 minutes under ambient conditions, and cultured overnight at 37° C./5% CO2 to initiate the formation of spheroids. Compound dilutions were prepared across a range of concentrations in DMSO and added to the appropriate wells of the assay plates with a 333-fold dilution into the culture medium. The plates were further incubated for 7 days. The quantity of viable cells was assessed using CellTiter-Glo 3D Cell Viability Assay (Promega). The detection reagent penetrates the spheroids and lyses the cells. The released ATP that was detected with luciferase and a luciferase substrate to generate a luminescent readout. […] The data points were fit to a 4-parameter logistic equation to determine IC50 values.

HPAC cells = assay: HPAC 3D proliferation assay (CellTiter-Glo); type: cell-based; conditions: Homo sapiens, 168 h, 3D culture, 7 days, read-out: HPAC CTG IC50
Procedure: as §1, §2

Chain of recombinant human KRAS wild type (SOS1-mediated nucleotide exchange) (P01116-2 other isoform, or with tags, fused parts or gaps): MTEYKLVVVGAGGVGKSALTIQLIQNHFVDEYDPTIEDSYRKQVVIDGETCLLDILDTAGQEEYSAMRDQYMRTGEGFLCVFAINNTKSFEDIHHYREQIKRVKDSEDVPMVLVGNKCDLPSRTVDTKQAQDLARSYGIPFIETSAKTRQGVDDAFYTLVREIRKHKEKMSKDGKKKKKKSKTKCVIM
Chain of recombinant human mutant KRas G12V (SOS1-mediated nucleotide exchange) (P01116-2 other isoform, or with tags, fused parts or gaps G12V): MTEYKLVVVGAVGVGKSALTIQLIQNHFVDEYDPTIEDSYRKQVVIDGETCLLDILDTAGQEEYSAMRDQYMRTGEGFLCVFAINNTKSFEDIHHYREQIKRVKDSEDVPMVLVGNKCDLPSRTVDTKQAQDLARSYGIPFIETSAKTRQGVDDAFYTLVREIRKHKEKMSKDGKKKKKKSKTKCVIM

Row | Structure (SMILES) | IC50 [1] [nM] | IC50 (SW620 PERK) [nM] | IC50 [2] [nM] | IC50 (H1975 cells) [nM] | IC50 (SW620 cells) [nM] | IC50 (HPAC cells) [nM]
1 | Cc1c(F)c(N)nc(-c2nc3c4c(nc(OC[C@@]56CCCN5C[C@]5(CC5(F)F)C6)nc4c2F)N([C@H](C)c2cccnc2N)CCO3)c1C(F)(F)F [Example 614] | 0.12 | 2.42 | 0.16 | 1960 | 1.75 | 11.5
2 | Cc1c(F)c(N)cc(-c2nc3c4c(nc(OC[C@@]56CCCN5C[C@H](F)C6)nc4c2F)N([C@H](C)c2cncnc2N)CCO3)c1C(F)(F)F [Example 617, 5-((R)-1-(5-(5-amino-4-fluoro-3-methyl-2-(trifluoromethyl)phenyl)-4-fluoro-2-(((2R,7aS)-2-fluorotetrahydro-1H-pyrrolizin-7a(5H)-yl)methoxy)-8,9-dihydro-10H-7-oxa-1,3,6,10-tetraazacyclohepta[de]naphthalen-10-yl)ethyl)pyrimidin-4-amine] | 0.11 | 28.8 | 0.31 | 24.4 | 38 | 239
3 | Cc1nc(N)cc(-c2nc3c4c(nc(OC[C@@]56CCN5C[C@]5(CC5(F)F)C6)nc4c2F)N([C@H](C)c2cccnc2N)CCO3)c1C(F)(F)F [Example 605] | 0.14 | 11.9 | 0.19 | 4 | 11.3 | 94
4 | C[C@H](c1cccnc1N)N1CCOc2nc(-c3c(C(F)(F)F)ccc(N)c3Cl)c(F)c3nc(OC[C@@]45CCCN4C[C@H](F)C5)nc1c23 (atropisomer, axis not shown; (aS)) [Example 622a, 3-((R)-1-((R)-5-(3-amino-2-chloro-6-(trifluoromethyl)phenyl)-4-fluoro-2-(((2R,7aS)-2-fluorotetrahydro-1H-pyrrolizin-7a(5H)-yl)methoxy)-8,9-dihydro-10H-7-oxa-1,3,6,10-tetraazacyclohepta[de]naphthalen-10-yl)ethyl)pyridin-2-amine] | 0.19 | 3.2 | 0.572 | 766 | 5.1 | 39.6
5 | C[C@H](c1cccnc1N)N1CCOc2nc(-c3cc(N)nc4ccccc34)c(F)c3nc(OC[C@@]45CCCN4C[C@H](F)C5)nc1c23 [Example 602, 4-(10-((R)-1-(2-aminopyridin-3-yl)ethyl)-4-fluoro-2-(((2R,7aS)-2-fluorotetrahydro-1H-pyrrolizin-7a(5H)-yl)methoxy)-9,10-dihydro-8H-7-oxa-1,3,6,10-tetraazacyclohepta[de]naphthalen-5-yl)quinolin-2-amine] | 2.2 | 629 | 22.6 | 296 | 1950 | > 2000
6 | Cc1c(F)c(N)nc(-c2nc3c4c(nc(OC[C@@]56CCCN5C[C@H](F)C6)nc4c2F)N([C@H](C)c2cncnc2N)CCO3)c1C(F)(F)F [Example 613, 5-((R)-1-(5-(6-amino-5-fluoro-4-methyl-3-(trifluoromethyl)pyridin-2-yl)-4-fluoro-2-(((2R,7aS)-2-fluorotetrahydro-1H-pyrrolizin-7a(5H)-yl)methoxy)-8,9-dihydro-10H-7-oxa-1,3,6,10-tetraazacyclohepta[de]naphthalen-10-yl)ethyl)pyrimidin-4-amine] | 0.24 | 146 | 1.45 | 160 | 290 | 1520
7 | C[C@H](c1cccnc1N)N1CCOc2nc(-c3cc(N)ncc3C(F)(F)F)c(F)c3nc(OC[C@@]45CCCN4C[C@H](F)C5)nc1c23 [Example 608, 4-(10-((R)-1-(2-aminopyridin-3-yl)ethyl)-4-fluoro-2-(((2R,7aS)-2-fluorotetrahydro-1H-pyrrolizin-7a(5H)-yl)methoxy)-9,10-dihydro-8H-7-oxa-1,3,6,10-tetraazacyclohepta[de]naphthalen-5-yl)-5-(trifluoromethyl)pyridin-2-amine] | 0.52 | 45.1 | 3.38 | 243 | 246 | 917
8 | Cc1cc(N)cc(-c2nc3c4c(nc(OC[C@@]56CCCN5C[C@H](F)C6)nc4c2F)N([C@H](C)c2cccnc2N)CCO3)c1C(F)(F)F [Example 3, 3-((R)-1-(5-(5-amino-3-methyl-2-(trifluoromethyl)phenyl)-4-fluoro-2-(((2R,7aS)-2-fluorotetrahydro-1H-pyrrolizin-7a(5H)-yl)methoxy)-8,9-dihydro-10H-7-oxa-1,3,6,10-tetraazacyclohepta[de]naphthalen-10-yl)ethyl)pyridin-2-amine] | 0.08 | 0.59 | 0.104 | 9.54 | 1.15 | 8.79
9 | Cc1c(F)c(N)nc(-c2nc3c4c(nc(OC[C@@]56CCCN5C[C@H](F)C6)nc4c2Cl)N([C@H](C)c2cccnc2N)CCO3)c1C(F)(F)F [Example 620, 6-(10-((R)-1-(2-aminopyridin-3-yl)ethyl)-4-chloro-2-(((2R,7aS)-2-fluorotetrahydro-1H-pyrrolizin-7a(5H)-yl)methoxy)-9,10-dihydro-8H-7-oxa-1,3,6,10-tetraazacyclohepta[de]naphthalen-5-yl)-3-fluoro-4-methyl-5-(trifluoromethyl)pyridin-2-amine] | 0.24 | 4.29 | 0.748 | 132 | 19.2 | 89.8
10 | C[C@H](c1cccnc1N)N1CCOc2nc(-c3nc(N)cc4ccccc34)c(F)c3nc(OC[C@@]45CCCN4C[C@H](F)C5)nc1c23 [Example 618, 1-(10-((R)-1-(2-aminopyridin-3-yl)ethyl)-4-fluoro-2-(((2R,7aS)-2-fluorotetrahydro-1H-pyrrolizin-7a(5H)-yl)methoxy)-9,10-dihydro-8H-7-oxa-1,3,6,10-tetraazacyclohepta[de]naphthalen-5-yl)isoquinolin-3-amine] | 0.45 | 233 | 3.43 | 93.2 | 393 | 1050

The next lines start with results.

Row | IC50 [1] [nM] | IC50 (SW620 PERK) [nM] | IC50 [2] [nM] | IC50 (H1975 cells) [nM] | IC50 (SW620 cells) [nM] | Structure (SMILES) | IC50 (HPAC cells) [nM]
11 | 0.16 | 10.5 | 0.67 | 262 | 27.1 | Cc1nc(N)cc(-c2nc3c4c(nc(OC[C@@]56CCCN5C[C@H](F)C6)nc4c2Cl)N([C@H](C)c2cccnc2N)CCO3)c1C(F)(F)F [Example 626, 4-(10-((R)-1-(2-aminopyridin-3-yl)ethyl)-4-chloro-2-(((2R,7aS)-2-fluorotetrahydro-1H-pyrrolizin-7a(5H)-yl)methoxy)-9,10-dihydro-8H-7-oxa-1,3,6,10-tetraazacyclohepta[de]naphthalen-5-yl)-6-methyl-5-(trifluoromethyl)pyridin-2-amine] | 160
12 | 0.21 | 16.5 | 0.741 | 113 | 47.3 | Cc1c(F)c(N)nc(-c2nc3c4c(nc(OC[C@@]56CCCN5C[C@H](F)C6)nc4c2F)N([C@H](C)c2cc(F)cnc2N)CCO3)c1C(F)(F)F [Example 631, 6-(10-((R)-1-(2-amino-5-fluoropyridin-3-yl)ethyl)-4-fluoro-2-(((2R,7aS)-2-fluorotetrahydro-1H-pyrrolizin-7a(5H)-yl)methoxy)-9,10-dihydro-8H-7-oxa-1,3,6,10-tetraazacyclohepta[de]naphthalen-5-yl)-3-fluoro-4-methyl-5-(trifluoromethyl)pyridin-2-amine] | 110
13 | 0.089 | 6.08 | 0.379 | 83.4 | 15.5 | Cc1c(F)c(N)nc(-c2nc3c4c(nc(OC[C@@]56CCCN5C[C@]5(CC5(F)F)C6)nc4c2F)N([C@H](C)c2nccnc2N)CCO3)c1C(F)(F)F [Example 632] | 83.4
14 | 4.8 | 105 | 12.3 | 426 | 74.2 | Cc1c(F)c(N)c(F)c(-c2nc3c4c(nc(OC[C@@]56CCCN5C[C@H](F)C6)nc4c2Cl)N([C@H](C)c2cccnc2N)CCO3)c1C(F)(F)F (single isomer, unassigned) [Example 629b] | 682
15 | 2.3 | 29.6 | 5.5 | 2610 | 22.8 | C[C@H](c1cccnc1N)N1CCOc2nc(-c3c(C(F)(F)F)ccc(N)c3Cl)c(F)c3nc(OC[C@@]45CCCN4C[C@H](F)C5)nc1c23 (single isomer, unassigned) [Example 622b] | 123
